{
  "source": "patent US11896602B2",
  "about": "“Method for preventing pregnancy” (ESTETRA SRL, priority 2016, dated 2024)",
  "key": {"[1]": {"assay": "Terminal half-life", "conditions": "in vivo"}, "[2]": {"system": "healthy female subjects", "assay": "Example 1 clinical study, one 28-day cycle: dysmenorrhea as treatment-emergent adverse event", "type": "in vivo, human", "description": "During that study, healthy female subjects were treated for one 28-day cycle with either 10 or 20 mg E4 alone (n=10 and 11, respectively) or with a combination of E4 with either Progesterone (P) or Desogestrel (DSG) (n=15 or 16, respectively).\nAt baseline, occasional dysmenorrhea was reported by 11 subjects (21.2%), and frequent dysmenorrhea was reported by 19 subjects (36.5%). Overall, dysmenorrhea was reported by 25% to 53.3% of the subjects included in this trial.\nAs shown in Table 3 of Treatment-emergent adverse events (TE-AE) below, reporting of dysmenorrhea during the treatment phase was low in comparison to the incidence recorded at baseline."}, "[3]": {"assay": "Triglycerides levels on daily estrogen use", "type": "in vivo, human", "conditions": "even at higher dosages", "description": "Besides, the daily use of currently marketed estrogens (ethinylestradiol (EE), E2, E2V, conjugated equine estrogens) is associated with a dose-proportional increase in triglycerides levels. In the human body, high levels of triglycerides in the bloodstream have been linked to atherosclerosis and, by extension, the risk of heart disease and stroke."}, "[4]": {"conditions": "10 mg E4, n = 10, one 28-day cycle"}, "[5]": {"conditions": "20 mg E4 alone (n = 11), with DSG (n = 15) or with P4 (n = 16), one 28-day cycle"}},
  "data": [
    {"smiles": "C[C@]12CC[C@@H]3c4ccc(O)cc4CC[C@H]3[C@@H]1[C@@H](O)[C@@H](O)[C@@H]2O", "note": "[E4, estetrol]", "values": [
      {"measurement": "terminal half-life", "setting": "[1]", "result": 31.7, "unit": "h"},
      {"measurement": "Dysmenorrhea TE-AE, % of subjects", "setting": "[2]; [4]", "result": 10.0, "unit": "%"},
      {"measurement": "Dysmenorrhea TE-AE, number of subjects", "setting": "[2]; [4]", "result": 1},
      {"measurement": "Dysmenorrhea TE-AE, % of subjects", "setting": "[2]; [5]", "result": 9.1, "unit": "%"},
      {"measurement": "Dysmenorrhea TE-AE, number of subjects", "setting": "[2]; [5]", "result": 1},
      {"measurement": "triglycerides levels", "setting": "[3]", "result": "minimally increases triglycerides levels"}
    ]}
  ]
}
